The compounds below were run on human breast cancer cell BT-474 (assay: Inhibitory action on breast cancer cell BT-474 proliferation in vitro). Conditions: 120 h, BT-474 cells, cultured 5 days, SRB staining.
Format: cell-based
Method: A suspension of human breast cancer cell BT-474 (100 μl (6,000 cells)) were sown to a 96-well microplate and cultured in an incubator (37° C., 5% carbon dioxide). On the following day, 100 μl of a solution of each test compound, which was previously diluted 2-fold, was added, and the cells were cultured for 5 days. After the culture medium containing the test compound was removed, the cells were washed and fixed with 50% trichloroacetic acid, after which a 0.4% (w/v) SRB solution (dissolved in 1% acetic acid) was added to fix and stain the cell protein (Skehan et al., Journal of the National Cancer Institute, Vol. 82, pp. 1107-1112, 1990). After washing with a 1% acetic acid solution, 100 μl of an extract (10 mM Tris solution) was added to extract the pigment, and absorbance was measured at an absorption wavelength of 550 nm to quantify the amount of cells as protein content. Taking as 100% the protein content for the control group, which received no test compound solution, the ratio of the residual protein content for each treatment group was determined, and the compound concentration required to achieve 50% suppression of the residual cell content relative to the control (IC50 value) was calculated.

Compound	IC50 [nM]
CN(C)C/C=C/C(=O)NCc1cc2ncnc(Nc3ccc(OCc4cccc(F)c4)c(Cl)c3)c2[nH]1 [Example 82, (2E)-N-{[4-({3-chloro-4-[(3-fluorobenzyl)oxy]phenyl}amino)-5H-pyrrolo[3,2-d]pyrimidin-6-yl]methyl}-4-(dimethylamino)but-2-enamide]	< 100
CN(C)C/C=C/C(=O)NC/C=C/c1cc2ncnc(Nc3ccc(OCc4cccc(F)c4)c(Cl)c3)c2[nH]1 [Example 92, (2E)-N-{(2E)-3-[4-({3-chloro-4-[(3-fluorobenzyl)oxy]phenyl}amino)-5H-pyrrolo[3,2-d]pyrimidin-6-yl]prop-2-enyl}-4-(dimethylamino)but-2-enamide]	< 100

The next lines start with the values.

IC50 [nM]	Compound
< 100	CC(C)(C(=O)NCCn1ccc2ncnc(Nc3ccc(Oc4cccc(C(F)(F)F)c4)c(Cl)c3)c21)S(C)(=O)=O [Example 169, N-{2-[4-({3-chloro-4-[3-(trifluoromethyl)phenoxy]phenyl}amino)-5H-pyrrolo[3,2-d]pyrimidin-5-yl]ethyl}-2-methyl-2-(methylsulfonyl)propanamide]
< 100	CC(C)(C)S(=O)(=O)CCOCCn1ccc2ncnc(Nc3ccc(Oc4cccc(C(F)(F)F)c4)c(Cl)c3)c21 [Example 176, 5-{2-[2-(tert-butylsulfonyl)ethoxy]ethyl}-N-{3-chloro-4-[3-(trifluoromethyl)phenoxy]phenyl}-5H-pyrrolo[3,2-d]pyrimidin-4-amine]

Each compound was assayed against T1, EGF receptor intracellular domain protein (Homo sapiens, UniProt P00533) (assay: Determination of EGF receptor kinase inhibitory activity). Conditions: 1.0 μM test compound; biotinyl-poly-Glu:Tyr (4:1), AlphaScreen, 25° C., 10 min; read-out: EGF receptor kinase Inhibitory rate (%) at 1.0 μM.
T1 construct: encoding EGF receptor intracellular domain region, so that the protein contains an N-terminal Flag tag; made in house; host or cells: SF-21 insect cells, recombinant baculovirus BAC-EGFR
Format: biochemical
Method: Human EGF receptor gene was cloned by RT-PCR using total RNA prepared from A431 cells as a template. The primer for RT-PCR was prepared from nucleotide sequence (Genbank Accession XM—167493) information of EGF receptor gene by adding a nucleotide sequence encoding flag peptide and a restriction enzyme recognition sequence to a nucleotide sequence (2182-3810 of Genbank Accession XM—167493) encoding EGF receptor intracellular domain region, so that the protein contains an N-terminal Flag tag. The primer nucleotide sequence is shown below.
The RT reaction was conducted using SuperScript First-Strand Synthesis System for RT-PCR (Invitrogen) and the PCR reaction was conducted using a KOD-plus kit (TOYOBO). The obtained PCR product was electrophoresed on agarose gel (1%), the DNA fragment amplified by PCR was recovered from the gel, and then digested with restriction enzymes Sal I and Sph I. The DNA treated with the restriction enzymes was electrophoresed on agarose gel (1%), and the obtained DNA fragment was recovered and ligated to plasmid pFASTBAC1 (Invitrogen) digested with restriction enzymes Sal I and Sph I to give expression plasmid pFB-EGFR. The nucleotide sequence of insertion fragment was confirmed and found to be identical with the nucleotide sequence (2182-3810 of Genbank Accession XM—167493) of EGFR intracellular domain. Furthermore, using BAC-TO-BAC Baculovirus Expression System (Invitrogen), virus stock BAC-EGFR of recombinant baculovirus was prepared.
SF-21 cells were sown at 1×10^6 cells/mL to Sf-900II SFM medium (1 L, Invitrogen) containing 10% fetal bovine serum (trace), 50 mg/L gentamicin (Invitrogen) and 0.1% Pluronic F-68 (Invitrogen), and shaking culture was performed using a 2 L volume Erlenmeyer flask at 27° C., 100 rpm. After culturing for 24 hrs, recombinant baculovirus BAC-EGFR (13.4 mL) was added, and the mixture was further cultured for 3 days. The culture medium was centrifuged at 2,000 rpm for 5 min. to give virus-infected cells. The infected cells were washed with a phosphate buffered saline (Invitrogen), centrifuged under the same conditions, and the cells were preserved at −80° C. The cryopreserved cells were thawed in ice, suspended in buffer A (50 mM Tris buffer (30 mL, pH7.4) containing 20% glycerol, 0.15 M NaCl) supplemented with Complete Protease Inhibitor (Boehringer), and ruptured 3 times with a Polytron homogenizer (Kinematica) at 20,000 rpm for 30 sec. The ruptured medium was clarified by centrifugation at 40,000 rpm for 30 min. and filtered with a 0.45 μm filter. The filtrate was passed through a column packed with Anti-FLAG M2 Affinity Gel (4 mL, Sigma) at a flow rate of about 0.5 mL/min. The column was washed with buffer A, and eluted with buffer A containing 100 μg/mL of FLAG peptide. The eluate was concentrated with Vivaspin 20 (Vivascience) having a molecular weight cut off of 30K. The buffer of this concentrate was exchanged using NAPE 25 column (Amersham Bioscience) equilibrated with buffer A. The fractions containing EGF receptor intracellular domain protein were collected, glycerol was added to the final concentration of 50% and cryopreserved at −80° C.
A test compound dissolved in dimethyl sulfoxide (DMSO) was diluted with a buffer (50 mM Tris-HCl (pH 7.5), 5 mM MgCl2, 5 mM MnCl2, 2 mM dithiothreitol, 0.01% Tween-20). To this compound solution (5 μL) was added a buffer (10 μL) containing 250 ng/mL of EGF receptor intracellular domain protein and 250 ng/mL of biotin labeled polypeptide biotinyl-poly-Glu:Tyr (4:1) (CIS bio International). […]

T1 sequence (P00533 669-1210 limits assumed): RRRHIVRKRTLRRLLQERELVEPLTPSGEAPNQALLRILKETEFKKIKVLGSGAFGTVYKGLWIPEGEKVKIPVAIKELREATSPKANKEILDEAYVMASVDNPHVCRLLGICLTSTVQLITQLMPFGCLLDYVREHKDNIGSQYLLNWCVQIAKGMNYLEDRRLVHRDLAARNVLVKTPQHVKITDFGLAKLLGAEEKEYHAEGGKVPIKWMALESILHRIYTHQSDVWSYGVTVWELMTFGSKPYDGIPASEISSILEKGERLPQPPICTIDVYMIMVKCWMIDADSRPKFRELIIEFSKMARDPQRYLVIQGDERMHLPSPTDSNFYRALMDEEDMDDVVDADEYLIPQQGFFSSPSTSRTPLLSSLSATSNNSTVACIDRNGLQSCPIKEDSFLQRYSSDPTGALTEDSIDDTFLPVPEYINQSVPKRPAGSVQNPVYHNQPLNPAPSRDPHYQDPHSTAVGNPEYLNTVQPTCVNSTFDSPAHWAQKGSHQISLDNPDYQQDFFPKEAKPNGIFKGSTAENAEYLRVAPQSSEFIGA

Compound	inhibition at 1 µM [%]
Cn1c(/C=C/CO)cc2ncnc(Nc3ccc(OCc4cccc(F)c4)c(Cl)c3)c21 [Example 22, (2E)-3-[4-({3-chloro-4-[(3-fluorobenzyl)oxy]phenyl}amino)-5-methyl-5H-pyrrolo[3,2-d]pyrimidin-6-yl]-2-propen-1-ol]	98.5
OCCn1ccc2ncnc(Nc3ccc(OCc4cccc(F)c4)c(Cl)c3)c21 [Example 41, 2-[4-({3-chloro-4-[(3-fluorobenzyl)oxy]phenyl}amino)-5H-pyrrolo[3,2-d]pyrimidin-5-yl]ethanol]	98.9
CN(C)C/C=C/C(=O)NC/C=C/c1cc2ncnc(Nc3ccc(OCc4cccc(F)c4)c(Cl)c3)c2[nH]1 [Example 92, (2E)-N-{(2E)-3-[4-({3-chloro-4-[(3-fluorobenzyl)oxy]phenyl}amino)-5H-pyrrolo[3,2-d]pyrimidin-6-yl]prop-2-enyl}-4-(dimethylamino)but-2-enamide]	98
OCCOCCn1ccc2ncnc(Nc3ccc(OCc4cccc(F)c4)c(Cl)c3)c21 [Example 138, 2-{2-[4-({3-chloro-4-[(3-fluorobenzyl)oxy]phenyl}amino)-5H-pyrrolo[3,2-d]pyrimidin-5-yl]ethoxy}ethanol]	99

Now from value to compound:

inhibition at 1 µM [%]	Compound
96	OCCOCCn1ccc2ncnc(Nc3ccc(Oc4cccc(C(F)(F)F)c4)c(Cl)c3)c21 [Example 147, 2-{2-[4-({3-Chloro-4-[3-(trifluoromethyl)phenoxy]phenyl}amino)-5H-pyrrolo[3,2-d]pyrimidin-5-yl]ethoxy}ethanol]
97	CS(=O)(=O)CC(=O)NCCn1ccc2ncnc(Nc3ccc(Oc4cccc(C(F)(F)F)c4)c(Cl)c3)c21 [Example 160, N-{2-[4-({3-chloro-4-[3-(trifluoromethyl)phenoxy]phenyl}amino)-5H-pyrrolo[3,2-d]pyrimidin-5-yl]ethyl}-2-(methylsulfonyl)acetamide]
